Tests used:
[1] = molecular target: T1, PI3Kalpha (Homo sapiens, UniProt P42336); assay: HTRF PI3K biochemical assay, alpha isoform (selectivity versus delta); details: relative ratio PI3K-alpha IC50 value / PI3K-delta IC50 value
T1 construct: purchased Upstate; Millipore 14-602
Text: (§1) HTRF PI3K Biochemical Assay to Measure Intrinsic Potency of Compound Inhibitors
(§2) The PI3-Kinase biochemical assays were developed to measure the intrinsic potency and compound dependent inhibition of the alpha, beta, delta, and gamma PI3K isoform enzymes. This assay was developed and further optimized from a kit produced by Upstate (Millipore catalog #33-047) and has been configured for HTS and SAR screening. Briefly, this procedure exploits the exquisite specificity and high affinity binding of […] phosphatidyl(3,4,5)triphosphate (PIP3) to the GRP1 pleckstrin homology (PH) domain to generate the signal. In the absence of PIP3, an HTRF (Homogeneous Time-Resolved Fluorescence energy transfer) complex is formed consisting of europium (Eu)-labeled anti-GST, GSTtagged GRP1-PH domain, biotin-PIP3 and streptavidin conjugated APC. The native PIP3 produced by PI3-Kinase activity disrupts in a competitive manner the biotin-PIP3 from the PH domain, resulting in the loss of energy transfer (HTRF complex) and a decrease in the signal. The format of this assay is the same for all 4 isoforms of PI3K; the differences lie in the concentration of enzyme used to achieve robust assay window. The alpha, beta, and delta assays are run at 0.5, 1, and 0.3 nM enzymes and the gamma assay is run at 5 nM enzyme. The ATP concentration is 100 uM in the alpha, beta, and delta assays and 50 uM ATP in the gamma assay. All reactions are run at 5 uM PIP2.
(§3) Compounds are serially diluted (3-fold in 100% DMSO) across a 384-well polypropylene source plated from column 3 to column 12 and column 13 to column 22, to yield 10 concentration dose response for each test compound. Columns 1, 2, 23 and 24 contain either only DMSO or pharmacological known control inhibitor. Once titrations are made, 2.5 nL of the compounds on 384 well plates are reformatted and transferred by acoustic dispense in quadruplicates to a 1536 assay plate (Greiner) to assay across all four PI3K isoform enzymes.
(§4) The PI3-Kinase biochemical assay was optimized using the HTRF kit provided by Upstate (Millipore). The assay kit contains six reagents: 1) 4× Reaction Buffer; 2) native PIP2 (substrate); 3) Stop (EDTA); 4) Detection Mix A (Streptavidin-APC); 5) Detection Mix B (Eu-labeled Anti-GST plus GST-tagged PH-domain); 6) Detection Mix C. In addition, the following items were obtained or purchased; PI3Kinase (alpha 14-602, beta 14-603, gamma 14-558 and delta 14-604 from Upstate; Millipore), dithiothreitol (Sigma, D-5545), Adenosine-5′ triphosphate (InVitrogen, Cat#AS001A), native PIP3 (PI(3,4,5)P3, diC8, H^+, CELLSIGNALS, INC. Cat #907) DMSO (Sigma, 472301).
(§5) PI3Kinase Reaction Buffer is prepared by dilution the stock 1:4 with de-ionized water. DTT, PIP2 and Biotin-PIP3 were added to 1536 assay plate at a final concentration of 5 mM, […] 25 nM on the day of use. Enzyme addition and compound pre-incubation are initiated by the addition of 1.25 ul of PI3K (at twice its final concentration) in the 1× reaction buffer to all wells using a BioRaptor. Plates are incubated at room temperature for 15 minutes. Reactions are initiated by addition of 1.25 ul of 2× substrate solution (PIP2 and ATP in 1× reaction buffer) using BioRaptor. Plates are incubated in humidified chamber at room temperature for one hour. Reactions are quenched by addition of 0.625 uL of stop solution to all wells using the BioRaptor. The quenched reactions are then processed to detect product formation by adding 0.625 uL of Detection Solution to all wells using the BioRaptor (Detection mix C, Detection Mix A, and Detection Mix B combined together in an 18:1:1 ratio prepared 2 hours prior to use). Following a one hour incubation in the dark, the HTRF signal is measured on the Envision plate reader set for 330 nm excitation and dual emission detection at […]. […]

[2] = molecular target: T2, PI3Kdelta (Homo sapiens, UniProt O00329); assay: HTRF PI3K biochemical assay, delta isoform; details: 0.3 nM enzyme, 100 uM ATP, 5 uM PIP2, form screened (Neutral or TFA salt) given per compound
T2 construct: purchased Upstate; Millipore 14-604
Text: as §1, §2, §3, §4, §5

T1 sequence (P42336 whole entry, canonical isoform): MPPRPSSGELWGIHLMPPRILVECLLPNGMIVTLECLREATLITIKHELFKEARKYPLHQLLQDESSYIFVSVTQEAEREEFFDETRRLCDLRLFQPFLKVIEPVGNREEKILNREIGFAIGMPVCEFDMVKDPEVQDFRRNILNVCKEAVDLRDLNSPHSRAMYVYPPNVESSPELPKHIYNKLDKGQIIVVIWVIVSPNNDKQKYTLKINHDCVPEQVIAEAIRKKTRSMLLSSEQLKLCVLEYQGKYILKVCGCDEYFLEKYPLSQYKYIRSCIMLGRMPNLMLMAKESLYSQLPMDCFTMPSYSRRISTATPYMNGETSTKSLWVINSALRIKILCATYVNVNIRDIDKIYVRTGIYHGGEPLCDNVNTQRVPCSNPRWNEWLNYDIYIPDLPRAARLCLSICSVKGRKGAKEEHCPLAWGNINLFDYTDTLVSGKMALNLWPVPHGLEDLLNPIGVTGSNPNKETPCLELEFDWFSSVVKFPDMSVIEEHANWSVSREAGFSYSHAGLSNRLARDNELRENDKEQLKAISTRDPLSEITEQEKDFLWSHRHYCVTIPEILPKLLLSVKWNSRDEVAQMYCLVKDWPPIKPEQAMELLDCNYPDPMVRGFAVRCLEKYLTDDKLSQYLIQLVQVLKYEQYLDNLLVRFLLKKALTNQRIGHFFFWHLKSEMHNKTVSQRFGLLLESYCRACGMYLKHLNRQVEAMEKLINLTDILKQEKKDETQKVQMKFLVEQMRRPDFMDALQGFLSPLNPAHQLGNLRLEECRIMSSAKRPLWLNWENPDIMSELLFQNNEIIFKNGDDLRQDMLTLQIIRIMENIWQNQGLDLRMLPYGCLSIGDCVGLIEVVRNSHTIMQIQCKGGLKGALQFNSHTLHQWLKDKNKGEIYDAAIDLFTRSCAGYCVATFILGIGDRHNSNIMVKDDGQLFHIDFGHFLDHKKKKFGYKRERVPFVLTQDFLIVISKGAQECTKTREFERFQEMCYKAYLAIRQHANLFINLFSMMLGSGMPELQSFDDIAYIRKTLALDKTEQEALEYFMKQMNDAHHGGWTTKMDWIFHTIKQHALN
T1 sequence (P27986 whole entry partner, canonical isoform): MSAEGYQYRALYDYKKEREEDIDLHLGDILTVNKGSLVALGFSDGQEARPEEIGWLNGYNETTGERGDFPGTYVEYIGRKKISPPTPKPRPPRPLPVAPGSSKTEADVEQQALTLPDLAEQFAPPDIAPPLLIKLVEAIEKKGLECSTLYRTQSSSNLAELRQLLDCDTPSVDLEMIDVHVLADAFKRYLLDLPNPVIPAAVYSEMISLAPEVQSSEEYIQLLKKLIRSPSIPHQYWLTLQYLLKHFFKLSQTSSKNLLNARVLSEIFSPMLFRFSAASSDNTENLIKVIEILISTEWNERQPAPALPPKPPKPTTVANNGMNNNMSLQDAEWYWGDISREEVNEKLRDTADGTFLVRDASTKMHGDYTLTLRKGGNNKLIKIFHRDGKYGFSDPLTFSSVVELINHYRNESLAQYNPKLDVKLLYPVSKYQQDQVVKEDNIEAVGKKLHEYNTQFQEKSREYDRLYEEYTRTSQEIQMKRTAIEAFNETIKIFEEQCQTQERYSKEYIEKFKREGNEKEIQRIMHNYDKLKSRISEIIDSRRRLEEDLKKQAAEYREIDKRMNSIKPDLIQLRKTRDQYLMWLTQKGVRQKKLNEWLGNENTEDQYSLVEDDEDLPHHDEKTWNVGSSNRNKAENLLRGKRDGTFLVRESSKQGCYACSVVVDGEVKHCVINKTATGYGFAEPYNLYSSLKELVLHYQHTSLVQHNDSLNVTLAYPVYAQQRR
T2 sequence (O00329 whole entry, canonical isoform): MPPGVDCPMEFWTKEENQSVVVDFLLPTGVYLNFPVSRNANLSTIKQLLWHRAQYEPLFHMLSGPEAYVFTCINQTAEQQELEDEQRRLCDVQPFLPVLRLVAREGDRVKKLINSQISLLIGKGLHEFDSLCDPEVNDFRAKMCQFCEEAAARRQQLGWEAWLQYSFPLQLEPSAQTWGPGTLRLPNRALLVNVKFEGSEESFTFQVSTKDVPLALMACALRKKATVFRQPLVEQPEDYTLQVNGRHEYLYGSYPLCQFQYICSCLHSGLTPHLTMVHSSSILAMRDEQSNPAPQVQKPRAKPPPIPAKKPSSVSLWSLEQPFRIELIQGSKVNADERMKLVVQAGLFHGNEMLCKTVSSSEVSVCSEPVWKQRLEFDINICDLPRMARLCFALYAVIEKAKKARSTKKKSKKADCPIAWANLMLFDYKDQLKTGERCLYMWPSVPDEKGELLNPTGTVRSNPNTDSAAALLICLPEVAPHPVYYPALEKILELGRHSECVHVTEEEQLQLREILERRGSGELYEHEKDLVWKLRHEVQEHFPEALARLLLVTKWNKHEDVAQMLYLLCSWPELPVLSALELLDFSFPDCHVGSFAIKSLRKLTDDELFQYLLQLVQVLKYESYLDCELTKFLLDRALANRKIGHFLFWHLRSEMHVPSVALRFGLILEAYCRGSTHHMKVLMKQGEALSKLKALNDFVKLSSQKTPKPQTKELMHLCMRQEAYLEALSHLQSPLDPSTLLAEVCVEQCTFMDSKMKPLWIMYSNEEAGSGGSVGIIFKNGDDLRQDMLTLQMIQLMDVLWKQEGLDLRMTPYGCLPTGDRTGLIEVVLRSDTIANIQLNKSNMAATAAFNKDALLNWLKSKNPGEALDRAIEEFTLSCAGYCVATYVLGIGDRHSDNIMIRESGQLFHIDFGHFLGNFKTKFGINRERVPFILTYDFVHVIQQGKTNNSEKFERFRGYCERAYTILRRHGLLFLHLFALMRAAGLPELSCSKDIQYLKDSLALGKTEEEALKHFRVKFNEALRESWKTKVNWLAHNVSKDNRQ
T2 sequence (P27986 whole entry partner, canonical isoform): as the sequence (P27986 whole entry partner, canonical isoform) above

| Selectivity versus PI3Kalpha [1] | IC50 [2] [nM] | SMILES |
| --- | --- | --- |
| >10 | 11 | CCn1c(-c2cnc(C)nc2)nc2c(NC3CCc4c(c(C(C)C)nn4-c4ccccn4)C3)ncnc21 (racemic) [Compound 2-22, (S and R)-9-ethyl-N-[3-(1-methylethyl)-1-pyridin-2-yl-4,5,6,7-tetrahydro-1H-indazol-5-yl]-8-(2-methylpyrimidin-5-yl)-9H-purin-6-amine] |
| >10 | 41 | CCn1c(-c2cnc(C)nc2)nc2c(NC3CCc4nn(C)c(C(C)C)c4C3)ncnc21 (single isomer, unassigned) [Compound 2-24, (S or R)-9-ethyl-N-[(5S)-2-methyl-3-(1-methylethyl)-4,5,6,7-tetrahydro-2H-indazol-5-yl]-8-(2-methylpyrimidin-5-yl)-9H-purin-6-amine] |
| >10 | 260 | CCn1c(-c2cnc(C)nc2)nc2c(NC3CCc4ncn(C(C)C)c4C3C)ncnc21 (single isomer, unassigned) [Compound 5-22, 9-ethyl-N-[((6S, 7S) or (6R, 7R))-7-methyl-1-(1-methylethyl)-4,5,6,7-tetrahydro-1H-benzimidazol-6-yl]-8-(2-methylpyrimidin-5-yl)-9H-purin-6-amine] |
| >10 | 31 | CCn1c(-c2ccc(C(F)(F)F)nc2)nc2c(NC3CCc4nnc(C(C)C)n4C3)ncnc21 (single isomer, unassigned) [Compound 1-19, (S or R)-9-ethyl-N-[3-(1-methylethyl)-5,6,7,8-tetrahydro[1,2,4]triazolo[4,3-a]pyridin-6-yl]-8-(6-(trifluoromethyl)pyridin-3-yl]-9H-purin-6-amine] |
| >10 | 4.4 | CCn1c(-c2cnc(C)nc2)nc2c(OC3CCc4nnc(C5CC5)n4C3)ncnc21 (single isomer, unassigned) [Compound 1-32, (S or R)-6-{[3-cyclopropyl-5,6,7,8-tetrahydro[1,2,4]triazolo[4,3-a]pyridin-6-yl]oxy}-9-ethyl-8-(2-methylpyrimidin-5-yl)-9H-purine] |
| >10 | 1.2 | CCn1c(-c2ccc(OC)nc2)nc2c(NC3CCc4nnc(C5CC5)n4C3)ncnc21 (racemic) [Compound 1-12, (S and R)-N-(3-cyclopropyl-5,6,7,8-tetrahydro[1,2,4]triazolo[4,3-a]pyridin-6-yl)-9-ethyl-8-(6-methoxypyridin-3-yl)-9H-purin-6-amine] |
| >10 | 4.7 | CCn1c(-c2cnc(C)nc2)nc2c(NC3CCc4ncn([C@H]5C[C@@H](OC)C5)c4C3)ncnc21 (single isomer, unassigned) [Compound 5-13, (S or R)-9-ethyl-N-[1-(cis-3-methoxycyclobutyl)-4,5,6,7-tetrahydro-1H-benzimidazol-6-yl]-8-(2-methylpyrimidin-5-yl)-9H-purin-6-amine] |
| >10 | 460 | CCn1c(C(F)F)nc2c(NC3CCc4nnc(C(C)C)n4C3)ncnc21 (single isomer, unassigned) [Compound 1-8, (S or R)-8-(difluoromethyl)-9-ethyl-N-[3-(1-methylethyl)-5,6,7,8-tetrahydro[1,2,4]triazolo[4,3-a]pyridin-6-yl]-9H-purin-6-amine] |
| >10 | 21 | CCn1c(-c2cnc(C)nc2)nc2c(NC3(C)CCc4[nH]nc(C(C)C)c4C3)ncnc21 (single isomer, unassigned) [Compound 2-6, (S or R)-9-ethyl-N-[5-methyl-3-(1-methylethyl)-4,5,6,7-tetrahydro-1H-indazol-5-yl]-8-(2-methylpyrimidin-5-yl)-9H-purin-6-amine] |
| >10 | 12 | CCn1c(I)nc2c(NC3CCc4nnc(C5CC5)n4C3)ncnc21 (single isomer, unassigned) [Compound 1-26, (S or R)-N-[3-cyclopropyl-5,6,7,8-tetrahydro[1,2,4]triazolo[4,3-a]pyridin-6-yl]-9-ethyl-8-iodo-9H-purin-6-amine] |
| >10 | < 1 | CCn1c(-c2ccc(C(F)(F)F)nc2)nc2c(NC3CCc4nnc(C(C)C)n4C3)ncnc21 (single isomer, unassigned) [Compound 1-18, (S or R)-9-ethyl-N-[3-(1-methylethyl)-5,6,7,8-tetrahydro[1,2,4]triazolo[4,3-a]pyridin-6-yl]-8-[6-(trifluoromethyl)pyridin-3-yl]-9H-purin-6-amine] |
| >10 | < 1 | CCn1c(-c2cnc(C)nc2)nc2c(NC3CCc4c(c(C(C)C)nn4C(=O)OC(C)C)C3)ncnc21 (racemic) [Compound 2-18, (S and R)-1-methylethyl 5-{[9-ethyl-8-(2-methylpyrimidin-5-yl)-9H-purin-6-yl]amino}-3-(1-methylethyl)-4,5,6,7-tetrahydro-1H-indazole-1-carboxylate] |
| >10 | 3.5 | CCn1c(-c2ccc(C(F)F)cc2)nc2c(NC3CCc4nnc(C(C)C)n4C3)ncnc21 (single isomer, unassigned) [Compound 1-24, 8-[4-(difluoromethyl)phenyl]-9-ethyl-N-[(6(S or R))-3-(1-methylethyl)-5,6,7,8-tetrahydro[1,2,4]triazolo[4,3-a]pyridin-6-yl]-9H-purin-6-amine] |
| >10 | 5 | CCn1c(-c2cnc(C)nc2)nc2c(N[C@H]3Cc4nnc(C5CC5)n4C3)ncnc21 [Compound 1-38, N-[(6S)-3-cyclopropyl-6,7-dihydro-5H-pyrrolo[2,1-c][1,2,4]triazol-6-yl]-9-ethyl-8-(2-methylpyrimidin-5-yl)-9H-purin-6-amine] |
| >10 | 2 | CCc1nnc2n1CC(Nc1ncnc3c1nc(-c1cnc(C)nc1)n3CC)CC2 (single isomer, unassigned) [Compound 1-6, (S or R)-9-ethyl-N-[3-ethyl-5,6,7,8-tetrahydro[1,2,4]triazolo[4,3-a]pyridin-6-yl]-8-(2-methylpyrimidin-5-yl)-9H-purin-6-amine] |
| >10 | 20 | CCn1c(-c2cnc(C)nc2)nc2c(NC3CCc4c(c(C(C)C)nn4C(=O)CN(C)C)C3)ncnc21 (racemic) [Compound 2-14, (S and R)-N-{1-[(dimethylamino)acetyl]-3-(1-methylethyl)-4,5,6,7-tetrahydro-1H-indazol-5-yl}-9-ethyl-8-(2-methylpyrimidin-5-yl)-9H-purin-6-amine] |
| >10 | 14 | CCn1c(-c2cnc(C)nc2)nc2c(NC3CCc4c(c(C(C)C)nn4C)C3)ncnc21 (single isomer, unassigned) [Compound 2-25, (S or R)-9-ethyl-N-[(5S)-1-methyl-3-(1-methylethyl)-4,5,6,7-tetrahydro-1H-indazol-5-yl]-8-(2-methylpyrimidin-5-yl)-9H-purin-6-amine] |
| >10 | 8.3 | CCn1c(-c2ccc(S(C)(=O)=O)nc2)nc2c(NC3CCc4nnc(C5CC5)n4C3)ncnc21 (single isomer, unassigned) [Compound 1-30, (S or R)-N-[(6S)-3-cyclopropyl-5,6,7,8-tetrahydro[1,2,4]triazolo[4,3-a]pyridin-6-yl]-9-ethyl-8-[6-(methylsulfonyl)pyridin-3-yl]-9H-purin-6-amine] |
